Values of other authors in patent US20070213318A1, “C[…] WITH IMPROVED BLOOD-BRAIN BARRIER PE[…] THE TREATMENT OF DISEASES ACCOMPANIED BY COGNITIVE IMPAIRMENT” (priority 2006, published 2007).
Like-named read-outs stand apart in the source and are kept apart here.

Key:
[1] = tested on: human nAChR subtypes; settings: below the concentration range at which AChE inhibition takes place

In the case of `COc1ccc2c3c1O[C@H]1C[C@@H](O)C=C[C@@]31CCN(C)C2` [Galanthamine], the “concentrations at which the APL effect is observed” value [1] is listed as “submicromolar concentrations”, the “tissue to plasma ratio (T/P)” value (female rat spleen) is listed as about 20 and the “tissue to plasma ratio (T/P)” value (male and female rat, kidney) is listed as 10-15. The “tissue to plasma ratio (T/P)” value (male and female rat, salivary and adrenal gland) was 7-14 and the “tissue to plasma ratio (T/P)” value (rat, lung, liver, heart, skeletal muscle and testes) was 2-4.
